Activity calls are given as the source filed them. No stated cut-off is given here; in the data, actives have a measured IC50 and inactives only a lower limit.

In the assay the target is Envelope glycoprotein gp160 (Human immunodeficiency virus 1, UniProt Q6QLK5). Nature of the assay: inhibitors of HIV fusion peptide binding, primary screen, biochemical, uHTS, fluorescence dequenching (AID 1986).
Chain of Envelope glycoprotein gp160 (Q6QLK5 whole entry, the tested form may be a part): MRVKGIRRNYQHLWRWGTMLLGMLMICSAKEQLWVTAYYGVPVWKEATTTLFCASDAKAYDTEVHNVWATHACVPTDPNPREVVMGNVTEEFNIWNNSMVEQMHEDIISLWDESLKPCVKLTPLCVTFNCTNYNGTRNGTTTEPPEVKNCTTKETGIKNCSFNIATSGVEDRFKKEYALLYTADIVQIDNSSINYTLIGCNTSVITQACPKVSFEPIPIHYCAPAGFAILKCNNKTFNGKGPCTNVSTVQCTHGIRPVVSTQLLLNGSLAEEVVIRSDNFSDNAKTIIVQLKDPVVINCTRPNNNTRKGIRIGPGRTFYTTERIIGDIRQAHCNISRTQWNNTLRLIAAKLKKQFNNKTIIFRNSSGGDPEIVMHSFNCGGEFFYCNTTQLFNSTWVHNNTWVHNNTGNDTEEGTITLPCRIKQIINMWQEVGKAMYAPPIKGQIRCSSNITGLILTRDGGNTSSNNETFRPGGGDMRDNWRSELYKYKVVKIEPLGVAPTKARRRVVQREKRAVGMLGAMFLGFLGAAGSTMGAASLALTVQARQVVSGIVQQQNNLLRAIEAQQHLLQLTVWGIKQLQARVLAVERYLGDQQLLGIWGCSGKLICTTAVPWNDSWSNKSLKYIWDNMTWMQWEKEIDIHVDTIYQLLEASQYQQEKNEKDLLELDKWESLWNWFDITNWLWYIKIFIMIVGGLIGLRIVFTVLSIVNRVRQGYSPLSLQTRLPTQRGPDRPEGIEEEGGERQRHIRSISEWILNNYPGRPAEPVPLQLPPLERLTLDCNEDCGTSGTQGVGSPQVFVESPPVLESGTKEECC
As a reminder, the IC50 is the concentration at which inhibition is half-maximal. In the case of `CCCCCCCCCCCCCCCC[n+]1ccn(CC(C)=O)c1`, the IC50 was 14.4 µM (active).
In the case of `Cc1ccccc1NC1=NC(=O)/C(=C/c2cccn2-c2cccc(C(=O)O)c2)S1`, the IC50 is 11.3 µM (active).
Regarding `O=C(Nc1ccc(-c2nc3ccccc3[nH]2)cc1)c1ccccc1NS(=O)(=O)c1ccc(F)cc1`, the IC50 was 24.6 µM (active).

Values taken from ChEMBL document CHEMBL1201862, “PubChem BioAssay data set” (2004).
